In series [1] the test system is Trypanosoma brucei rhodesiense (bloodstream trypomastigotes, STIB 900 strain). Nature of the series: In vitro anti-trypanosomal activity against Tbr. Type of series: cell-based. The protocol: (§1) In vitro tests for biological activity of the crude extracts, fractions, sub-fractions and isolated compounds against Trypanosoma brucei rhodesiense (bloodstream trypomastigotes, STIB 900 strain), Trypanosoma cruzi (amastigotes, Tulahuen C4 strain), Leishmania donovani (amastigotes, MHOM-ET-67/L82 strain), Plasmodium falciparum (intraerythrocytic form, NF54 strain) and cytotoxicity test against mammalian L6 cell line from rat skeletal myoblasts were performed according to the established standard protocol. However, only the activity data against Trypanosoma brucei rhodesiense is reported due to the inactivity of the tested substances against other parasites at the concentration tested.

The nature of series [2]: Cytotoxicity against L6 cells. Type of series: cell-based, rat. The settings on record: rat. The procedure: as §1
Series [3] deals with L6 rat skeletal myoblasts. Description: Cytotoxicity against L6 cells. Type of series: cell-based. The procedure: as §1
[4] abbreviates: Trypanosoma brucei, isolated compounds, average of two determinations ± absolute deviation, read-out: Tbr (STIB900) IC50 (µg/mL).
The mark [5] stands for this setting: isolated compounds, average of two determinations ± absolute deviation, read-out: Tbr (STIB900) IC50.
The mark [6] stands for this setting: Trypanosoma brucei, isolated compounds, average of two determinations ± absolute deviation, read-out: Tbr (STIB900) IC50.
[7] abbreviates: isolated compounds, average of two determinations (a: one replicate), read-out: Cytotoxicity L6 Cells IC50.
Where [8] appears, read: isolated compounds, average of two determinations (a: one replicate), read-out: Cytotoxicity L6 Cells IC50 (µg/mL).

Where “and” joins values, the source holds several entries; their conditions need not be identical. Identical values can stand only once. Like-named read-outs stand apart in the source and are kept apart here.

Take `CC(=O)[C@H]1CC[C@H]2[C@@H]3CC=C4C[C@@H](N)CC[C@]4(C)[C@H]3CC[C@]12C` [Compound 1, 3β-holaphyllamine]: the IC50 was 0.127 ± 0.088 µg/mL in series [1] (setting [4]); 400 ± 280 nM in series [1] (setting [5]); 1.61 µg/mL and 5.1 µM in series [2].

`CC(=O)N[C@H]1CC[C@@]2(C)C(=CC[C@H]3[C@@H]4CC[C@H](C(C)=O)[C@@]4(C)CC[C@@H]32)C1` [Compound 2, holaphyllamine acetamide]: the IC50 in series [1] (setting [6]) is 4800 to 14900 nM; in series [1] (setting [4]) it was 1.73 ± 0.47 µg/mL; in series [1] (setting [5]) it was 4830 ± 1330 nM; in series [2], 5.49 µg/mL and 15.4 µM.

On to `CN[C@H]1CC[C@@]2(C)C(=CC[C@H]3[C@@H]4CC[C@H](C(C)=O)[C@@]4(C)CC[C@@H]32)C1` [Compound 3, 3β-N-methylholaphyllamine], for which the IC50 is 80 ± 10 nM in series [1] (setting [6]); 0.025 ± 0.001 µg/mL in series [1] (setting [4]); 75 ± 4 nM in series [1] (setting [5]); 0.829 µg/mL and 2.48 µM in series [2].

Regarding `CC(=O)[C@H]1CC[C@H]2[C@@H]3CC=C4C[C@H](N)CC[C@]4(C)[C@H]3CC[C@]12C` [Compound 4, 3α-holaphyllamine], the IC50 is 370 ± 159 nM in series [1] (setting [6]); 0.117 ± 0.05 µg/mL in series [1] (setting [4]); 5 µg/mL and 15.9 µM in series [2].

As for `CC(=O)[C@H]1CC[C@H]2[C@@H]3CC[C@H]4C[C@@H](N)CC[C@]4(C)[C@H]3CC[C@]12C` [Compound 5, 3β-dihydroholaphyllamine], the IC50 in series [1] (setting [6]) is 670 ± 30 nM; in series [1] (setting [4]), 0.213 ± 0.008 µg/mL; in series [1] (setting [5]), 672 ± 27 nM; in series [2] (setting [7]) it was 17400 ± 1360 nM; in series [2] (setting [8]) it was 5.51 ± 0.43 µg/mL.

`CC(=O)[C@H]1CC[C@H]2[C@@H]3CC[C@H]4C[C@H](N)CC[C@]4(C)[C@H]3CC[C@]12C` [Compound 6, 3α-dihydroholaphyllamine]: the IC50 in series [1] (setting [6]) stood at 1210 ± 750 nM; in series [1] (setting [4]) it was 0.382 ± 0.238 µg/mL; in series [2] (setting [7]) it was 17000 ± 1200 nM; in series [2] (setting [8]), 5.38 ± 0.39 µg/mL.

In the case of `C[C@H]1[C@H]2CC[C@H]3[C@@H]4CCC5=CC(=O)C=C[C@]5(C)[C@H]4CC[C@]23CN1C` [Compound 7, holadienine], the IC50 in series [1] (setting [6]) amounted to 14900 ± 2100 nM; in series [1] (setting [4]) it was 4.81 ± 0.68 µg/mL.

For the molecule `C[C@@H]1N=C[C@]23C[C@H](O)[C@H]4[C@@H](CCC5=CC(=O)C=C[C@@]54C)[C@@H]2CC[C@H]13` [Compound 8, holonamine], the IC50 in series [1] (setting [6]) was 8670 ± 2330 nM; in series [1] (setting [4]) it was 2.82 ± 0.76 µg/mL; in series [2] it was 21.1 µg/mL and 64.9 µM.

Turning to `C[C@H]1[C@H]2CC[C@H]3[C@@H]4C=CC5=CC(=O)CC[C@]5(C)[C@H]4CC[C@]23CN1C` [Compound 9, cona-4,6-dienin-3-one], the IC50 in series [1] (setting [6]) is 17500 ± 200 nM; in series [1] (setting [4]), 5.69 ± 0.07 µg/mL; in series [2] it was 41.9 µg/mL and 129 µM.

For `C[C@H]1[C@H]2CC[C@H]3[C@@H]4C(=O)C=C5C=CCC[C@]5(C)[C@H]4CC[C@]23CN1C` [Compound 10, cona-3,5-dienin-7-one], the IC50 in series [1] (setting [6]) worked out at 7370 ± 940 nM; in series [1] (setting [4]) it was 2.4 ± 0.3 µg/mL; in series [2] (setting [7]), 41700 ± 18900 nM; in series [2] (setting [8]) it was 13.6 ± 6.2 µg/mL.

As to `C[C@@H]1NC[C@]23CC[C@H]4[C@@H](CC=C5C[C@@H](N(C)C)CC[C@@]54C)[C@@H]2CC[C@H]13` [Compound 11, conessimine], the IC50 in series [1] (setting [6]) was 170 ± 80 nM; in series [1] (setting [4]) it was 0.057 ± 0.028 µg/mL; in series [1] (setting [5]) it was 167 ± 83 nM; in series [2], 17.3 µg/mL and 50.4 µM.

With `CN[C@H]1CC[C@@]2(C)C(=CC[C@H]3[C@@H]4CC[C@@H]5[C@H](C)N(C)C[C@@]54CC[C@@H]32)C1` [Compound 12, isoconessimine], the IC50 in series [1] (setting [6]) was 170 ± 110 nM; in series [1] (setting [4]), 0.056 ± 0.038 µg/mL; in series [1] (setting [5]), 166 ± 112 nM; in series [2] it was 9.38 µg/mL and 27.4 µM.

With `C[C@H]1[C@H]2CC[C@H]3[C@@H]4CC=C5C[C@@H](N(C)C)CC[C@]5(C)[C@H]4CC[C@]23CN1C` [Compound 13, conessine], the IC50 in series [1] (setting [6]) is 420 ± 90 nM; in series [1] (setting [4]), 0.149 ± 0.031 µg/mL; in series [1] (setting [5]) it was 419 ± 87 nM; in series [2] (L6 rat skeletal myoblast cells, isolated compounds, average of two determinations (a: one replicate), read-out: Cytotoxicity L6 Cells IC50) it was 61200 nM; in series [2] (L6 rat skeletal myoblast cells, isolated compounds, average of two determinations (a: one replicate), read-out: Cytotoxicity L6 Cells IC50 (µg/mL)), 21.8 µg/mL.

Regarding `CN[C@H]1CC[C@@]2(C)C(=CC[C@H]3[C@@H]4CC[C@@H]5[C@H](C)N(C)C[C@@]54[C@H](OC(=O)CC=C(C)C)C[C@@H]32)C1` [Compound 14, holarrhesine], the IC50 is 120 ± 80 nM in series [1] (setting [6]); 0.054 ± 0.038 µg/mL in series [1] (setting [4]); 119 ± 84 nM in series [1] (setting [5]); 6.51 µg/mL and 14.3 µM in series [2].

For the molecule `CC(C)=CCC(=O)O[C@@H]1C[C@H]2[C@@H](CC=C3C[C@@H](N(C)C)CC[C@@]32C)[C@@H]2CC[C@@H]3[C@H](C)N(C)C[C@]312` [Compound 15, holarrhetine], the IC50 in series [1] (setting [6]) was 1660 ± 390 nM; in series [1] (setting [4]), 0.777 ± 0.182 µg/mL; in series [2], 45.8 µg/mL and 97.7 µM.

`CN[C@H]1CC[C@@]2(C)C(=CC[C@H]3[C@@H]4CC[C@@H]5[C@H](C)N(C)C[C@@]54[C@H](O)C[C@@H]32)C1` [Compound 16, holarrheline]: the IC50 in series [1] (setting [6]) was 8210 ± 1030 nM; in series [1] (setting [4]), 2.94 ± 0.37 µg/mL; in series [2] it was 64.8 µg/mL and 181 µM.

Regarding `C[C@H]1[C@H]2CC[C@H]3[C@@H]4CC=C5C[C@@H](N(C)C)CC[C@]5(C)[C@H]4C[C@@H](O)[C@]23CN1C` [Compound 17, holarrhenine], the IC50 in series [1] (setting [6]) is 20900 ± 6000 nM; in series [1] (setting [4]), 7.78 ± 2.23 µg/mL; in series [2], 46.4 µg/mL and 125 µM.

For `C[C@]12C=CC(=O)C=C1CC[C@@H]1[C@@H]2[C@@H](O)C[C@]2(C)C(=O)CC[C@@H]12` [Compound 18, kurchinin], in series [1] (setting [4]), the IC50 came out at 3.64 ± 0.21 µg/mL.

`Nc1nc(N)nc(Nc2ccc([As]3SCC(CO)S3)cc2)n1` (stereo not shown) [melarsoprol, reference compound]: in series [1] (Trypanosoma brucei, read-out: Tbr IC50), the IC50 was determined as 0.002 ± 0.001 µg/mL.

For the molecule `COc1cc([C@@H]2c3cc4c(cc3[C@H](O)[C@H]3COC(=O)[C@H]23)OCO4)cc(OC)c1OC` [podophyllotoxin, reference compound], the IC50 in series [2] (Table 1, Leaves, L6 cells (c: one replicate), read-out: Cytotox. L6 IC50) came to 0.004 ± 0.001 µg/mL.

N^3-isopentenyl adenine [Compound 19]: the “Tbr (STIB900) IC50” value in series [1] (isolated compounds, average of two determinations ± absolute deviation) is on record as 5.03 ± 0.54 µg/mL. Further, in series [3], the “Cytotoxicity L6 Cells IC50” value came out at 61.30 ± 4.24 µg/mL and the IC50 came out at 302000 ± 6800 nM.

The values above are taken from publication PMC6152089, “Steroid Alkaloids from Holarrhena africana with Strong Activity against Trypanosoma brucei rhodesiense” (Molecules : A Journal of Synthetic Chemistry and Natural …, 2017).
